Patent US11464802B2, “3-substituted piperidine compounds for Cbl-b inhibition, and use thereof” (Nurix Therapeutics, Inc., priority 2019, dated 2022)

How the values were obtained:
[1] = target: T1, Cbl-b (Homo sapiens (Human), UniProt Q13191); test: Cbl-b displacement assay (Cbl-b inhibition assay), Biological Example 8; type: binding; conditions: 0.5 nM Cbl-b final concentration (High); Table 8-1; read-out: Cbl-b IC50 (High)
Procedure: (§1) Candidate compounds were evaluated for their ability to bind and inhibit Cbl-b, an E3 ubiquitin-protein ligase, as evidenced by their ability to displace a fluorophore-labeled probe bound to Cbl-b.
(§2) The ability of candidate compounds to displace a known inhibitor and thereby inhibit Cbl-b activity was measured by monitoring the interaction of Cbl-b with a fluorophore-labeled probe in the presence of the candidate compound. A truncated variant of Cbl-b (UniProt number Q13191) containing residues 36-427 and an Avitag at its N-terminus was co-expressed with BirA biotin ligase and purified using a standard protocol (see Dou et al., Nature Structural and Molecular Biology 8: 982-987, 2013; Avidity LLC).
(§3) Fluorescently-labeled inhibitor probe was synthesized and tagged with BODIPY FL. Cbl-b displacement assays were performed in a 384-well plate at room temperature in a 10 μl reaction volume by pre-incubating 0.5 nM Cbl-b or 0.125 nM Cbl-b (final concentration, indicated as “High” and “Low”, respectively) in an assay buffer containing 20 mM HEPES pH 7.5, 150 mM NaCl, 0.01% Triton X-100, 0.01% BSA and 0.5 mM TCEP in the presence of a candidate compound in 1% DMSO (final concentration) for 1 hour. After incubation in the presence of the candidate compound, the plate was incubated for an additional 1 hour in the presence of an approximate EC40 binding saturation consisting of 150 nM fluorescently-labeled inhibitor probe and 2 nM Streptavidin-Terbium (Cisbio) (final concentrations). Following the 1 hour incubation, the plates were read for TR-FRET signal at 520/620 nM using an Envision plate reader (Perkin Elmer).
(§4) The resulting data for the Cbl-b activity assays were analyzed using standard methods to determine the IC50 values for the tested compounds.

[2] = target: T1, Cbl-b; test: Cbl-b displacement assay (Cbl-b inhibition assay), TR-FRET probe displacement, Biological Example 1; type: binding
How it was run: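 N-terminally Avitagged, biotinylated truncated Cbl-b (0.5 nM "High" or 0.125 nM "Low", final) pre-incubated 1 h at room temperature with compound (1% DMSO) in HEPES pH 7.5 buffer. Then 150 nM BODIPY FL probe (~EC40) plus 2 nM streptavidin-terbium for 1 h; TR-FRET read at 520/620 nm.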

[3] = tested on: primary human total T-cells; test: Primary human total T-cell activation: IL-2 secretion, Biological Example 13; type: cell-based; conditions: 48 hours, fold change over baseline; for fold induction at 0.3 µM: inhibitor 0.3 μM; for fold induction at 0.3 µM / fold induction at 3 µM: Table 13-1; for fold induction at 1 µM: inhibitor 1 μM; for fold induction at 3 µM: inhibitor 3 μM
[4] = target: T1, Cbl-b; test: Cbl-b displacement assay (Cbl-b inhibition assay), Biological Example 12; type: binding; conditions: 0.5 nM Cbl-b final concentration (High); Table 12-1; read-out: Cbl-b IC50 (High)
Procedure: as §1, §2, §3, §4

[5] = tested on: primary human total T-cells; test: Primary human total T-cell activation: CD25 surface staining, Biological Example 9; type: cell-based; conditions: 48 hours, fold change over baseline; for fold induction at 0.3 µM: inhibitor 0.3 μM; for fold induction at 0.3 µM / fold induction at 3 µM: Table 9-1; for fold induction at 1 µM: inhibitor 1 μM; for fold induction at 3 µM: inhibitor 3 μM
[6] = tested on: primary human total T-cells; test: Primary human total T-cell activation: IL-2 secretion, Biological Example 9; type: cell-based; conditions: 48 hours, fold change over baseline; for fold induction at 0.3 µM: inhibitor 0.3 μM; for fold induction at 0.3 µM / fold induction at 3 µM: Table 9-1; for fold induction at 1 µM: inhibitor 1 μM; for fold induction at 3 µM: inhibitor 3 μM
[7] = tested on: primary human total T-cells; test: Primary human total T-cell activation: IL-2 secretion, Biological Example 2; type: cell-based; conditions: 48 hours, fold change over baseline; for fold induction at 0.3 µM: inhibitor 0.3 μM; for fold induction at 1 µM: inhibitor 1 μM; for fold induction at 3 µM: inhibitor 3 μM
[8] = tested on: primary human total T-cells; test: Primary human total T-cell activation: CD25 surface staining, Biological Example 13; type: cell-based; conditions: 48 hours, fold change over baseline; for fold induction at 0.3 µM: inhibitor 0.3 μM; for fold induction at 0.3 µM / fold induction at 3 µM: Table 13-1; for fold induction at 1 µM: inhibitor 1 μM; for fold induction at 3 µM: inhibitor 3 μM
[9] = tested on: primary human total T-cells; test: Primary human total T-cell activation: CD25 surface staining, Biological Example 2; type: cell-based; conditions: 48 hours, fold change over baseline; for fold induction at 0.3 µM: inhibitor 0.3 μM; for fold induction at 1 µM: inhibitor 1 μM; for fold induction at 3 µM: inhibitor 3 μM
[10] = 0.5 nM Cbl-b final concentration (High), read-out: Cbl-b activity IC50 (High)
[11] = Cbl-b concentration (High or Low) not given, read-out: IC50 values in the Cbl-b inhibition assay of Biological Example 1
[12] = anti-CD3/anti-CD28 co-stimulation
[13] = anti-CD3/anti-CD28 co-stimulation, Table 13-1, read-out: IL-2 secretion CD3/CD28 1 μM
[14] = anti-CD3 alone, Table 13-1, read-out: IL-2 secretion CD3 1 μM
[15] = anti-CD3/anti-CD28 co-stimulation, Table 9-1, read-out: CD25 staining CD3/CD28 1 μM
[16] = anti-CD3 alone, Table 9-1, read-out: CD25 staining CD3 1 μM
[17] = anti-CD3/anti-CD28 co-stimulation, Table 9-1, read-out: IL-2 secretion CD3/CD28 1 μM
[18] = anti-CD3 alone, Table 9-1, read-out: IL-2 secretion CD3 1 μM
[19] = anti-CD3/anti-CD28 co-stimulation, read-out: IL-2 secretion CD3/CD28 1 μM
[20] = anti-CD3 alone, read-out: IL-2 secretion CD3 1 μM
[21] = anti-CD3/anti-CD28 co-stimulation, Table 13-1, read-out: CD25 staining CD3/CD28 1 μM
[22] = anti-CD3 alone, Table 13-1, read-out: CD25 staining CD3 1 μM
[23] = anti-CD3/anti-CD28 co-stimulation, read-out: CD25 staining CD3/CD28 1 μM
[24] = anti-CD3 alone, read-out: CD25 staining CD3 1 μM

T1 sequence (Q13191 36-427): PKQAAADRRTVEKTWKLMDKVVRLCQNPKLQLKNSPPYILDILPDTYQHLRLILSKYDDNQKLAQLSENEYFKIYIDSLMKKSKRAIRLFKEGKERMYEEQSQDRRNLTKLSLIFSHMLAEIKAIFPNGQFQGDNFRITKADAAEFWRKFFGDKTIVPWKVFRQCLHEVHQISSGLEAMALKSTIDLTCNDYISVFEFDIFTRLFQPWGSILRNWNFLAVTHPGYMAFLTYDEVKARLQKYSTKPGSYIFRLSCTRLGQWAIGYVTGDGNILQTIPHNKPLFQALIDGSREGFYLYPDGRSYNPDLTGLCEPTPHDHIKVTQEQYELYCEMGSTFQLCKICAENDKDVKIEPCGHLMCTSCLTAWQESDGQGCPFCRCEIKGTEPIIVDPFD

SMILES	IC50 [1] [nM]	IC50 [2, 10] [nM]	IC50 [2, 11] [nM]	fold induction at 0.3 µM [3, 12]	fold induction at 1 µM [3, 13]	fold induction at 1 µM [3, 14]	fold induction at 3 µM ([3]; anti-CD3 alone)	IC50 [4] [nM]	fold induction at 0.3 µM [5, 12]	fold induction at 1 µM [5, 15]	fold induction at 1 µM [5, 16]	fold induction at 3 µM ([5]; anti-CD3 alone)	fold induction at 0.3 µM [6, 12]	fold induction at 1 µM [6, 17]	fold induction at 1 µM [6, 18]	fold induction at 3 µM ([6]; anti-CD3 alone)	fold induction at 0.3 µM [7, 12]	fold induction at 1 µM [7, 19]	fold induction at 1 µM [7, 20]	fold induction at 3 µM ([7]; anti-CD3 alone)	further results
C[C@@H]1CN(Cc2cc(C(=O)Nc3cccc(C4(Cc5nncn5C)COC4)c3)nc(C3CC3)c2)CCC1(F)F [Compound 32, 6-cyclopropyl-4-{[(3R)-4,4-difluoro-3-methylpiperidin-1-yl]methyl}-N-(3-{3-[(4-methyl-1,2,4-triazol-3-yl)methyl]oxetan-3-yl}phenyl)pyridine-2-carboxamide]	< 1	< 1	< 1	> 15	> 15	> 0.66	> 0.66	< 1	> 1.39	> 1.39	> 1.14	> 1.14	> 15	> 15	> 0.66	> 0.66	> 15	> 15	0.34 to 0.66	0.34 to 0.66	fold induction at 0.3 µM [8, 12]: > 1.39; fold induction at 1 µM [8, 21]: > 1.39; fold induction at 1 µM [8, 22]: > 1.14; fold induction at 3 µM ([8]; anti-CD3 alone): > 1.14; fold induction at 0.3 µM [9, 12]: < 1.24; fold induction at 1 µM [9, 23]: < 1.24; fold induction at 1 µM [9, 24]: 1.05 to 1.14; fold induction at 3 µM ([9]; anti-CD3 alone): 1.05 to 1.14
C[C@H]1CCCN(Cc2cc3c(c(C(F)(F)F)c2)CN(c2cccc(C4(Cc5nncn5C)COC4)c2)C3=O)C1 [Compound 1, (S)-2-(3-(3-((4-methyl-4H-1,2,4-triazol-3-yl)methyl)oxetan-3-yl)phenyl)-6-((3-methylpiperidin-1-yl)methyl)-4-(trifluoromethyl)isoindolin-1-one]	< 1	< 1	< 1	> 15	> 15	> 0.66	> 0.66	< 1	> 1.39	> 1.39	> 1.14	> 1.14	> 15	> 15	> 0.66	> 0.66	> 15	> 15	> 0.66	> 0.66	fold induction at 0.3 µM [8, 12]: > 1.39; fold induction at 1 µM [8, 21]: > 1.39; fold induction at 1 µM [8, 22]: > 1.14; fold induction at 3 µM ([8]; anti-CD3 alone): > 1.14; fold induction at 0.3 µM [9, 12]: < 1.24; fold induction at 1 µM [9, 23]: < 1.24; fold induction at 1 µM [9, 24]: < 1.04; fold induction at 3 µM ([9]; anti-CD3 alone): < 1.04
CCOc1cc(C2(Cc3nncn3C)COC2)cc(N2Cc3c(cc(CN4CCC(F)(F)[C@H](C)C4)cc3C(F)(F)F)C2=O)n1 [Compound 28, (R)-6-((4,4-difluoro-3-methylpiperidin-1-yl)methyl)-2-(6-ethoxy-4-(3-((4-methyl-4H-1,2,4-triazol-3-yl)methyl)oxetan-3-yl)pyridin-2-yl)-4-(trifluoromethyl)isoindolin-1-one]	1 to 5	1 to 5	1 to 5	11 to 15	11 to 15	0.34 to 0.66	0.34 to 0.66	1 to 5	1.25 to 1.39	< 1.24	1.05 to 1.14	< 1.04	10 to 15	10 to 15	0.34 to 0.66	0.34 to 0.66	> 15	> 15	0.34 to 0.66	0.34 to 0.66	fold induction at 0.3 µM [8, 12]: 1.25 to 1.39; fold induction at 1 µM [8, 21]: < 1.24; fold induction at 1 µM [8, 22]: 1.05 to 1.14; fold induction at 3 µM ([8]; anti-CD3 alone): < 1.04; fold induction at 0.3 µM [9, 12]: 1.25 to 1.39; fold induction at 1 µM [9, 23]: < 1.24; fold induction at 1 µM [9, 24]: 1.05 to 1.14; fold induction at 3 µM ([9]; anti-CD3 alone): < 1.04
